Test results as given in US7273458B2, “Method of applying acoustic energy effective to alter transport or cell viability” (Georgia Tech Research Corporation, priority 1998, dated 2007).

System: Prostate tumor cells (DU-145)
Experiment: Ultrasound-mediated uptake of fluorescent markers into prostate tumor cells (flow cytometry)
Format: cell-based
Conditions: for time decay constant τ of average uptake versus time of addition after exposure: exponential fit, calcein added ≧15 s after exposure
Experimental: Prostate tumor cells (DU-145) were suspended in RPMI-1640 medium with 10% fetal bovine serum at 5×10^5 cells/ml. For each experimental condition, a 3 ml polypropylene tube was filled with the cell suspension at room temperature (22±2° C.) and the top of the tube was closed without entrapping any air bubbles. The cells were exposed to ultrasound at 24 kHz in a chamber that consisted of a cylindrical piezoelectric transducer sandwiched between two PVC pipes and filled with deionized and degassed water at room temperature. Pressure, pulse length, duty cycle, and the total exposure time of ultrasound exposure were controlled. Acoustic spectra during exposure were collected using a hydrophone placed in the exposure chamber. Calcein, a green-fluorescent membrane-impermeant marker, dissolved in saline, was added to the suspensions either before or at various times after exposure at a final concentration of 10 μM. Other fluorescent markers, with different sizes, were also used to determine membrane permeability. The cells were kept at room temperature for 15 minutes after exposure, and then placed on ice until they were centrifuged and resuspended in phosphate-buffered saline with 0.1 mg/ml of propidium iodide (a red-fluorescence viability stain). Cell-by-cell fluorescence was measured using flow cytometry, and 6 μm green-fluorescence microspheres were added to each sample at a constant concentration to provide an internal volumetric standard for determining concentrations of viable cells.

Row | Compound | average uptake of molecules per exposed cell, less than that of calcein (same external concentration (10 μM), exposure conditions of FIG. 7, P=8.0 atm) | uptake when added after ultrasound exposure (lifetime of membrane disruptions) (calcein added at different times after exposure) | average uptake when added 15 sec. after exposure compared to added before exposure (examined pressures 5.3, 7.1 and 8.0 atm) | time decay constant τ of average uptake versus time of addition after exposure (incident pressure 5.3 atm) [s] | time decay constant τ of average uptake versus time of addition after exposure (incident pressure 7.1 atm) [s] | time decay constant τ of average uptake versus time of addition after exposure (incident pressure 8.0 atm) [s] | average cellular calcein uptake, plateau (ultrasound 24 kHz, increasing peak incident pressure, 20 pulses of 0.1 sec, 10% duty cycle, calcein 10 μM added before exposure)
1 | bovine serum albumen [BSA] | about 60 % less |  |  |  |  |  | 
2 | O=C(O)CN(CC(=O)O)Cc1cc2c(cc1O)Oc1cc(O)c(CN(CC(=O)O)CC(=O)O)cc1C21OC(=O)c2ccccc21 [calcein] |  | significant uptake occurred for up to two minutes after exposure | about 50 % less | 78 | 66 | 56 | 20-25 % of external calcein concentration
